How the values were obtained:
Experiment in all cases: MIC panel of challenge pathogens (CLSI)
Format in all cases: cell-based
[1] = system: Bacillus cereus NCTC6349; conditions: Bacillus cereus
Method in brief: (§1)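 Broth microdilution per CLSI guidelines. Final inoculum 2-8×10^5 CFU/ml, compounds serially two-fold diluted from 128 mg/L top concentration. Incubated in the dark at 30-37° C for 24-48 h, aerobic or anaerobic as appropriate. MIC read visually as 100% inhibition endpoint; MIC50 and MIC80 also reported.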

[2] = system: Enterococcus faecalis ATCC29212; conditions: Enterococcus faecalis
Method in brief: as §1

[3] = system: Enterococcus faecalis ATCC51299; conditions: Enterococcus faecalis
Method in brief: as §1

[4] = system: Enterococcus faecium ATCC700221; conditions: Enterococcus faecium
Method in brief: as §1

[5] = system: Staphylococcus aureus ATCC43300; conditions: Staphylococcus aureus
Method in brief: as §1

[6] = system: Staphylococcus aureus AUR131 007035; conditions: Staphylococcus aureus
Method in brief: as §1

[7] = system: Staphylococcus aureus AUR58 7005; conditions: Staphylococcus aureus
Method in brief: as §1

[8] = system: Staphylococcus aureus AUR59 7005; conditions: Staphylococcus aureus
Method in brief: as §1

[9] = system: Staphylococcus aureus AUR60 7005; conditions: Staphylococcus aureus
Method in brief: as §1

[10] = system: Staphylococcus aureus EUP MRSA002; conditions: Staphylococcus aureus
Method in brief: as §1

[11] = system: Staphylococcus aureus EUP MRSA004; conditions: Staphylococcus aureus
Method in brief: as §1

[12] = system: Staphylococcus aureus EUP SAU040; conditions: Staphylococcus aureus
Method in brief: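 CLSI broth microdilution; inoculum 2-8×10^5 CFU/ml; 2-fold series, top 128 mg/L; 30-37° C, 24-48 h, dark; visual read, 100% inhibition endpoint.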

[13] = system: Staphylococcus aureus NRS1 (ATCC700699); conditions: Staphylococcus aureus
Method in brief: as §1

[14] = system: Staphylococcus aureus NRS2 (ATCC700698); conditions: Staphylococcus aureus
Method in brief: as §1

[15] = system: Staphylococcus aureus NRS382; conditions: Staphylococcus aureus
Method in brief: as §1

[16] = system: Staphylococcus aureus NRS383; conditions: Staphylococcus aureus
Method in brief: as §1

[17] = system: Staphylococcus aureus NRS384; conditions: Staphylococcus aureus
Method in brief: as §1

[18] = system: Staphylococcus epidermidis NRS122; conditions: Staphylococcus epidermidis
Method in brief: as §1

[19] = system: Staphylococcus epidermidis NRS7; conditions: Staphylococcus epidermidis
Method in brief: as §1

CN[C@H](CC(C)C)C(=O)N[C@H]1C(=O)N[C@@H](CC(N)=O)C(=O)N[C@H]2C(=O)N[C@H]3C(=O)N[C@H](C(=O)N[C@H](C(=O)O)c4cc(O)cc(O)c4-c4cc3ccc4O)[C@H](O)c3ccc(c(Cl)c3)Oc3cc2cc(c3O[C@@H]2O[C@H](CO)[C@@H](O)[C@H](O)[C@H]2O[C@H]2C[C@](C)(N)[C@H](O)[C@H](C)O2)Oc2ccc(cc2Cl)[C@H]1O [Vancomycin, reference compound]
4 µg/mL: MIC ([2]; ATCC29212, read-out: 100% inhibition) | MIC50 ([2]; ATCC29212, read-out: MIC50 (50%)) | MIC80 ([2]; ATCC29212, read-out: MIC80 (80%)) | MIC ([13]; read-out: 100% inhibition) | MIC80 ([13]; read-out: MIC80 (80%)) | MIC ([19]; NRS7, read-out: 100% inhibition) | MIC80 ([19]; NRS7, read-out: MIC80 (80%))
> 16 µg/mL: MIC ([3]; ATCC51299, read-out: 100% inhibition) | MIC50 ([3]; ATCC51299, read-out: MIC50 (50%)) | MIC80 ([3]; ATCC51299, read-out: MIC80 (80%)) | MIC ([4]; ATCC700221, read-out: 100% inhibition) | MIC50 ([4]; ATCC700221, read-out: MIC50 (50%)) | MIC80 ([4]; ATCC700221, read-out: MIC80 (80%))
2 µg/mL: MIC ([1]; NCTC6349, read-out: 100% inhibition) | MIC80 ([1]; NCTC6349, read-out: MIC80 (80%)) | MIC50 ([13]; read-out: MIC50 (50%)) | MIC ([18]; NRS122, read-out: 100% inhibition) | MIC50 ([19]; NRS7, read-out: MIC50 (50%))
1 µg/mL: MIC50 ([1]; NCTC6349, read-out: MIC50 (50%)) | MIC ([7]; AUR587005, read-out: 100% inhibition) | MIC50 ([7]; AUR587005, read-out: MIC50 (50%)) | MIC80 ([7]; AUR587005, read-out: MIC80 (80%)) | MIC ([8]; AUR597005, read-out: 100% inhibition) | MIC ([9]; AUR607005, read-out: 100% inhibition) | MIC80 ([9]; AUR607005, read-out: MIC80 (80%)) | MIC ([12]; EUPSAU040, read-out: 100% inhibition) | MIC50 ([12]; EUPSAU040, read-out: MIC50 (50%)) | MIC80 ([12]; EUPSAU040, read-out: MIC80 (80%)) | MIC ([14]; read-out: 100% inhibition) | MIC80 ([14]; read-out: MIC80 (80%)) | MIC ([15]; NRS382, read-out: 100% inhibition) | MIC50 ([15]; NRS382, read-out: MIC50 (50%)) | MIC80 ([15]; NRS382, read-out: MIC80 (80%)) | MIC ([17]; NRS384, read-out: 100% inhibition) | MIC50 ([17]; NRS384, read-out: MIC50 (50%)) | MIC80 ([17]; NRS384, read-out: MIC80 (80%)) | MIC50 ([18]; NRS122, read-out: MIC50 (50%)) | MIC80 ([18]; NRS122, read-out: MIC80 (80%))
0.5 µg/mL: MIC ([5]; ATCC43300, read-out: 100% inhibition) | MIC50 ([5]; ATCC43300, read-out: MIC50 (50%)) | MIC80 ([5]; ATCC43300, read-out: MIC80 (80%)) | MIC ([6]; AUR131007035, read-out: 100% inhibition) | MIC50 ([6]; AUR131007035, read-out: MIC50 (50%)) | MIC80 ([6]; AUR131007035, read-out: MIC80 (80%)) | MIC50 ([8]; AUR597005, read-out: MIC50 (50%)) | MIC80 ([8]; AUR597005, read-out: MIC80 (80%)) | MIC50 ([9]; AUR607005, read-out: MIC50 (50%)) | MIC ([10]; EUPMRSA002, read-out: 100% inhibition) | MIC50 ([10]; EUPMRSA002, read-out: MIC50 (50%)) | MIC80 ([10]; EUPMRSA002, read-out: MIC80 (80%)) | MIC ([11]; EUPMRSA004, read-out: 100% inhibition) | MIC50 ([11]; EUPMRSA004, read-out: MIC50 (50%)) | MIC80 ([11]; EUPMRSA004, read-out: MIC80 (80%)) | MIC50 ([14]; read-out: MIC50 (50%)) | MIC ([16]; NRS383, read-out: 100% inhibition) | MIC50 ([16]; NRS383, read-out: MIC50 (50%)) | MIC80 ([16]; NRS383, read-out: MIC80 (80%))

From patent US9012655B2, “Antimicrobial/adjuvant compounds and methods” (Denouamed, Inc., priority 2011, dated 2015)
